Laboratory results: US20080014133A1, “Extraction Of Radionuclides By Crown Ether-Containing Extractants” (priority 2004, published 2008)

Tests used:
[1] = Radiation resistance of the extractants (gamma irradiation); type: physicochemical; conditions: for Distribution ratio DMe after irradiation / Distribution ratio after irradiation, % of original: dose 100.0 kGr (10^7 rad); for Usefulness of extractant after irradiation: dose 285.3 kGr
Excerpt: The radiation resistance of the extractants according to the invention used for extraction radionuclides of strontium or cesium was studied. For this purpose, reaction mixtures consisting of biphase water-organic systems containing extractants based on crown ethers DCH18C6 or DB21C7 in Fluoroheptanol n3 and aqueous nitrate waste solutions, and, for comparison, reaction mixtures containing extractants based on crown ethers Crown XVI or Crown XVII with a cation exchanger—dinanylnaphthalene of sulfonic acids in a matrix solution comprising tributyl phosphate and kerosene were irradiated with gamma-rays […] in a temperature-controlled cell of stainless steel with continuous agitation by bubbling. The maximum integrated radiation dose was equal to 285.3 kGr. The extractant samples were tested and the extraction characteristics were measured before and after the irradiation to determine a decrease of the distribution ratio DMe due to the radiological destruction of extractant components.

[2] = as described in US patent 4749518; with dinanylnaphthalene sulfonic acid in tributyl phosphate and kerosene; cited from earlier work
[3] = as described in US patent 4749518; cited from earlier work
[4] = as described in US patent 4749518; cited from earlier work; remark: listed apart in the source
[5] = as described in US patent 4749518; cited from earlier work; remark: listed apart in the source
[6] = as described in US patent 4749518; cited from earlier work; remark: listed apart in the source
[7] = as described in US patent 4749518; cited from earlier work; remark: listed apart in the source
[8] = as described in US patent 4749518; cited from earlier work; remark: listed apart in the source
[9] = as described in US patent 4749518; cited from earlier work; remark: listed apart in the source
[10] = as described in US patent 4749518; cited from earlier work; remark: listed apart in the source
[11] = Influence of nitric acid concentration on extraction of sodium; type: physicochemical; conditions: crown ether about 0.1 mol/l in Fluoroheptanol n3
Procedure: Selected for study were extractants containing crown ethers: DB18C6, DTBDB18C6, DCH18C6 or DB21C7 in a concentration of about 0.1 mol/l in Fluoroheptanol n3. Used as experimental solutions were aqueous solutions of sodium nitrate whose concentration was determined using radiometric techniques on previously added aliquot of a sodium-22 isotope.

[12] = Distribution ratio of strontium extracted in organic solutions of crown ethers (Table 1); type: physicochemical; conditions: Sr and Cs 1 g/l, nitric acid about 3.0 mol/l
Procedure: (§1) Study was carried out for determining the distribution ratios of radionuclides, for example, strontium or cesium to be extracted by the extractants according to the invention containing various crown ethers as a complexing agent: bis(tert-butylbenzo)-18-crown-6 (subsequently referred to as DTBDB18C6), di-isooctylbenzo-18-crown-6 (subsequently referred to as DIODB18C6), bis(tert-butylcyclohexane-18-crown-6 (subsequently referred to as DTBDCH18C6), di-isooxyldicyclohexane-18-crown-6 (subsequently referred to as DIODCH18C6), bicyclohexane-18-crown-6 (subsequently referred to as DCH18C6) or dibenzo-21-crown-7 (subsequently referred to as DB21C7), in an organic solvent according to the invention: polyfluorinated telomeric alcohol 1,1,7-trihydrododecafluoroheptanol-1 (subsequently referred to as fluoroheptanol n3).
(§2) For comparison, the distribution ratios of strontium and cesium were determined using extractants containing similar crown ethers in another organic solvent (decane).
(§3) Taken for the tests were experimental aqueous nitrate solutions containing strontium and cesium in a concentration of 1 g/l with a content of nitric acid of about 3.0 mol/l.

[13] = Distribution ratio of cesium extracted in organic solutions of crown ethers (Table 1); type: physicochemical; conditions: Sr and Cs 1 g/l, nitric acid about 3.0 mol/l
Procedure: as §1, §2, §3

[14] = Influence of sodium concentration on extraction of cesium; type: physicochemical; conditions: Cs 1 g/l, nitric acid about 3.0 mol/l
Procedure: Extraction of cesium was made involving starting solutions containing 1 g/l of cesium in nitric acid having concentration about of 3.0 mol/l at different concentration of sodium. The solutions were treated with the extractants according to the invention containing crown ether DTBDB18C6 in a concentration about of 0.1 mol/l in fluoroheptanol n3.

[15] = Interaction of extractants with sodium (organic/aqueous phase concentration); type: physicochemical
Procedure: The characteristics of the extractants according to the invention in the process of extraction of sodium from acidic aqueous solutions of high-level waste were determined. For this purpose, the concentration of sodium in the organic and aqueous phases containing extractants based on DTBDB18C6 or DCH18C6 or DB21C7 in a concentration about of 0.05 mol/l in fluoroheptanol n3 were analyzed.

[16] = Influence of nitric acid concentration on cesium extraction from solution No.1; type: physicochemical; conditions: solution No.1
Excerpt: The dependence of extraction of cesium by organic solutions DTBDB18C6 in fluoropentanol n3 and DB21C7 in Fluoroheptanol n3 at a concentration of nitric acid in a starting solution was studied. Solution No.1 whose composition is listed in Table 2 was used as a starting solution.

[17] = crown ether 0.1 mole/l in Fluoroheptanol n3
[18] = crown ether 0.1 mole/l in Decane

With `CCCCCCC(O)C1CCC2OCCOCCOC3CCC(C(O)CCCCCC)CC3OCCOCCOC2C1` (mixture of isomers) [Crown XVI, bis-4,4′(5′)[1-hydroxyheptyl]cyclohexo-18-crown-6] the “Distribution ratio before irradiation” value ([1]; Sr) was 1.98, the “Distribution ratio DMe after irradiation” value ([1]; Sr) was 1.56 and the “Distribution ratio after irradiation, % of original” value ([1]; Sr) was 78.78%. For the same molecule, the “Loss of the distribution ratio of strontium after irradiation” value ([1]; dose 100 kGr) was “about 21%”, the “Usefulness of extractant after irradiation” value [1] was “practically useless” and the “Distribution ratios, Ba” value [2] was 4.2. For the same molecule, the “Distribution ratios, Y” value [3] was 0.02, the “Distribution ratios, Pd” value [4] was 0.05 and the “Distribution ratios, Ru” value [5] was 0.26. The “Distribution ratios, Rare-earth” value [6] was 0.06, the “Distribution ratios, Rb” value [7] was 0.11 and the “Distribution ratios, Sr” value [8] was 3.84. For the same molecule, the “Distribution ratios, Cs” value [9] was 0.03 and the “Distribution ratios, Zr” value [10] was 1.41.

For `CCCCC(CC)C(O)c1ccc2c(c1)OCCOCCOc1cc(C(O)C(CC)CCCC)ccc1OCCOCCO2` (mixture of isomers) [Crown XVII, bis-4,4′(5′)[1-hydroxy-2-ethylhexyl]benzo-18-crown-6], the “Distribution ratio before irradiation” value ([1]; Cs) was 1.59, the “Distribution ratio DMe after irradiation” value ([1]; Cs) was 1.04 and the “Distribution ratio after irradiation, % of original” value ([1]; Cs) was 65.41%. For the same molecule, the “Reduction of the distribution ratio of cesium after irradiation” value ([1]; dose 100 kGr) was 35%, the “Usefulness of extractant after irradiation” value [1] was “practically useless” and the “Distribution ratios, Ba” value [2] was 0.03. For the same molecule, the “Distribution ratios, Y” value [3] was 0.02, the “Distribution ratios, Pd” value [4] was 0.22 and the “Distribution ratios, Ru” value [5] was 0.31. For the same molecule, the “Distribution ratios, Rare-earth” value [6] was 0.17, the “Distribution ratios, Rb” value [7] was 0.29 and the “Distribution ratios, Sr” value [8] was 0.06. The “Distribution ratios, Cs” value [9] was 1.59 and the “Distribution ratios, Zr” value [10] was 2.09.

For `c1ccc2c(c1)OCCOCCOc1ccccc1OCCOCCO2` [DB18C6, dibenzo-18-crown-6], the “Distribution ratios of sodium” value ([11]; nitric acid 0 mol/l) was 0.025, the “Distribution ratios of sodium” value ([11]; nitric acid 0.1 mol/l) was 0.04 and the “Distribution ratios of sodium” value ([11]; nitric acid 0.5 mol/l) was 0.15. For the same molecule, the “Distribution ratios of sodium” value ([11]; nitric acid 1.0 mol/l) was 0.21, the “Distribution ratios of sodium” value ([11]; nitric acid 3.0 mol/l) was 0.49 and the “Distribution ratios of sodium” value ([11]; nitric acid 5.0 mol/l) was 0.67.

With `CC(C)(C)c1ccc2c(c1)OCCOCCOc1ccc(C(C)(C)C)cc1OCCOCCO2` [DTBDB18C6, bis(tert-butylbenzo)-18-crown-6] the “Distribution ratio Strontium” value [12, 17] was 0.11, the “Distribution ratio Cesium” value [13, 17] was 15.45 and the “Distribution ratios of sodium” value ([11]; nitric acid 0 mol/l) was 0.03. The “Distribution ratios of sodium” value ([11]; nitric acid 0.1 mol/l) was 0.04, the “Distribution ratios of sodium” value ([11]; nitric acid 0.5 mol/l) was 0.17 and the “Distribution ratios of sodium” value ([11]; nitric acid 1.0 mol/l) was 0.27. For the same molecule, the “Distribution ratios of sodium” value ([11]; nitric acid 3.0 mol/l) was 0.55, the “Distribution ratios of sodium” value ([11]; nitric acid 5.0 mol/l) was 0.64 and the Cesium distribution ratio ([14]; sodium nitrate 0 mole/l, crown ether about 0.1 mol/l in fluoroheptanol n3) was 16.0. For the same molecule, the Cesium distribution ratio ([14]; sodium nitrate 0.02 mole/l) was 9.0, the Cesium distribution ratio ([14]; sodium nitrate 0.03 mole/l) was 9.1 and the Cesium distribution ratio ([14]; sodium nitrate 0.04 mole/l) was 9.3. For the same molecule, the Cesium distribution ratio ([14]; sodium nitrate 0.20 mole/l) was 3.0, the “Sodium concentration in the organic phase” value (from here on “Sodium concentration”) ([15]; sodium in the aqueous phase 0.01 mol/l, crown ether about 0.05 mol/l in fluoroheptanol n3) was 0 mol/L and the “Sodium concentration” value ([15]; sodium in the aqueous phase 0.1 mol/l, crown ether about 0.05 mol/l) was 0.035 mol/L. The “Sodium concentration” value ([15]; sodium in the aqueous phase 0.2 mol/l, crown ether about 0.05 mol/l) was 0.07 mol/L, the “Sodium concentration” value ([15]; sodium in the aqueous phase 0.4 mol/l, crown ether about 0.05 mol/l) was 0.14 mol/L and the “Distribution ratios of cesium” value ([16]; nitric acid 0 mol/l, Fluoroheptanol n3) was 2.5. For the same molecule, the “Distribution ratios of cesium” value ([16]; nitric acid 0.1 mol/l) was 7.1, the “Distribution ratios of cesium” value ([16]; nitric acid 0.5 mol/l) was 12.8 and the “Distribution ratios of cesium” value ([16]; nitric acid 1.0 mol/l) was 12.3. For the same molecule, the “Distribution ratios of cesium” value ([16]; nitric acid 2.0 mol/l) was 10.3, the “Distribution ratios of cesium” value ([16]; nitric acid 3.0 mol/l) was 8.2 and the “Distribution ratios of cesium” value ([16]; nitric acid 4.0 mol/l) was 6.0. For the same molecule, the “Distribution ratios of cesium” value ([16]; nitric acid 5.0 mol/l) was 4.0, the “Distribution ratios of cesium” value ([16]; nitric acid 6.0 mol/l) was 2.7 and the “Distribution ratios of cesium” value ([16]; nitric acid 7.0 mol/l) was 1.1. For the same molecule, the “Distribution ratios of cesium” value ([16]; nitric acid 8.0 mol/l) was 0.

With `CC(C)(C)C1CCC2OCCOCCOC3CC(C(C)(C)C)CCC3OCCOCCOC2C1` (centres unmarked) [DTBDCH18C6] the “Distribution ratio Strontium” value [12, 18] was under 0.001 and the “Distribution ratio Strontium” value [12, 17] was 1.91.

In the case of di-isooctylbenzo-18-crown-6 [DIODB18C6], the “Distribution ratio Strontium” value [12, 18] is reported as 0.05, the “Distribution ratio Strontium” value [12, 17] is reported as 0.06 and the “Distribution ratio Cesium” value [13, 18] is reported as 0.004. The “Distribution ratio Cesium” value [13, 17] was 4.23.

In the case of “di-isooxyldicyclohexane-18-crown-6 [DIODCH18C6]”, the “Distribution ratio Strontium” value [12, 18] is reported as under 0.001, the “Distribution ratio Strontium” value [12, 17] is reported as 0.106 and the “Distribution ratio Cesium” value [13, 18] is reported as 0.004.
